One may read the IC50 as the concentration that gives 50% inhibition. A low value points to greater potency in that assay.

Consider 17 compounds from patent US20230348442A1, “GALECTIN-3 INHIBITING 2-HYDROXYCYCLOALKANE-1-CARBAMOYL DERIVATIVES” (Idorsia Pharmaceuticals Ltd, priority 2020, published 2023).

Molecules are shown by their SMILES.

Chain of human Gal-3 (hGal-3) (P17931 whole entry): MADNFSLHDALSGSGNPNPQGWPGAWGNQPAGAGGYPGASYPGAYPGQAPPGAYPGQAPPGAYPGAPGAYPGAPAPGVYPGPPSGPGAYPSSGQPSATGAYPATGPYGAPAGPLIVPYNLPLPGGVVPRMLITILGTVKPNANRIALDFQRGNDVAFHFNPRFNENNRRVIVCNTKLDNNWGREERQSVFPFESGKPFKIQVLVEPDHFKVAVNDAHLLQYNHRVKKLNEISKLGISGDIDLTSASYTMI

This assay addresses human Gal-3 (hGal-3) (Homo sapiens (Human), UniProt P17931). Put plainly: competitive binding assay: binding of biotinylated hGal-3 to microplate-adsorbed asialofetuin (ASF), spectrophotometric. The conditions noted are these: Activity on hGal-3; mean values of several measurements. On the procedure:
Evaluation of Compound Inhibitory Activity (IC50)
The inhibitory activity of compounds is determined in competitive binding assays. This spectrophotometric assay measures the binding of biotinylated human Gal-3 (hGal-3) or human Gal-1 (hGal-1), respectively, to a microplate-adsorbed glycoprotein, asialofetuin (ASF) (Proc Natl Acad Sci USA. 2013 Mar. 26; 110(13):5052-7.). Alternatively, and preferably, a human Gal-1 version in which all six cysteines are substituted by serines may be used.
Briefly, compounds are serially diluted in DMSO (working dilutions). ASF-coated 384 well plates are supplemented with 22.8 μL/well of biotinylated hGal-3 or hGal-1 in assay buffer (i.e. 300-1000 ng/mL biotinylated hGal-3 or hGal-1) to which 1.2 μL of compound working dilutions are added and mixed.
Plates are incubated for 3 hours at 4° C., then washed with cold assay buffer (3×50 uL), incubated for 1 hour with 25 μL/well of a streptavidin-peroxidase solution (diluted in assay buffer to 80 ng/mL) at 4° C., followed by further washing steps with assay buffer (3×50 uL). Finally, 25 μL/well of ABTS substrate is added.
The calculated IC50 values may fluctuate depending on the daily assay performance. Fluctuations of this kind are known to those skilled in the art. IC50 values from several measurements are given as mean values.
Take `CO[C@@H]1[C@@H](n2cc(-c3cc(F)c(F)c(Cl)c3)nn2)[C@@H](O)[C@@H](CO)O[C@H]1C(=O)N(c1cc(Br)cc(C#N)c1)[C@H]1CCC[C@@H]1O` [Example 1.7.5, (2R,3R,4S,5R,6R)-N-(3-bromo-5-cyanophenyl)-4-(4-(3-chloro-4,5-difluorophenyl)-1H-1,2,3-triazol-1-yl)-5-hydroxy-N-((1S,2S)-2-hydroxycyclopentyl)-6-(hydroxymethyl)-3-methoxytetrahydro-2H-pyran-2-carboxamide]: the IC50 was determined as 21.2 nM.
The figure for `CO[C@@H]1[C@@H](n2cc(-c3ccc(Cl)c(Cl)c3)nn2)[C@@H](O)[C@@H](CO)O[C@H]1C(=O)N(c1cc(Cl)cc(C#N)c1)[C@H]1CCC[C@@H]1O` [Example 1.8.4, (2R,3R,4S,5R,6R)-N-(3-chloro-5-cyanophenyl)-4-(4-(3,4-dichlorophenyl)-1H-1,2,3-triazol-1-yl)-5-hydroxy-N-((1S,2S)-2-hydroxycyclopentyl)-6-(hydroxymethyl)-3-methoxytetrahydro-2H-pyran-2-carboxamide] is 75.9 nM.
In turn, `CO[C@@H]1[C@@H](n2cc(-c3ccc(Cl)c(Cl)c3)nn2)[C@@H](O)[C@@H](CO)O[C@H]1C(=O)N(c1cc(Cl)cc(C#N)c1)[C@@H]1CCC[C@H]1O` [Example 1.8.4R, (2R,3R,4S,5R,6R)-N-(3-chloro-5-cyanophenyl)-4-(4-(3,4-dichlorophenyl)-1H-1,2,3-triazol-1-yl)-5-hydroxy-N-((1R,2R)-2-hydroxycyclopentyl)-6-(hydroxymethyl)-3-methoxytetrahydro-2H-pyran-2-carboxamide] showed a concentration for half-maximal inhibition (IC50) of 330 nM. Against the preceding compound, the IC50 is about 4.3-fold higher.
In turn, `CO[C@@H]1[C@@H](n2cc(-c3ccc(Cl)c(Cl)c3)nn2)[C@@H](O)[C@@H](CO)O[C@H]1C(=O)N(c1cc(Br)cc(C#N)c1)[C@H]1CCC[C@@H]1O` [Example 1.8.5, (2R,3R,4S,5R,6R)-N-(3-bromo-5-cyanophenyl)-4-(4-(3,4-dichlorophenyl)-1H-1,2,3-triazol-1-yl)-5-hydroxy-N-((1S,2S)-2-hydroxycyclopentyl)-6-(hydroxymethyl)-3-methoxytetrahydro-2H-pyran-2-carboxamide] returned an IC50 of 40.8 nM.
The figure for `CO[C@@H]1[C@@H](n2cc(-c3cc(F)cc(Cl)c3)nn2)[C@@H](O)[C@@H](CO)O[C@H]1C(=O)N(c1cc(Br)cc(C#N)c1)[C@H]1CCC[C@@H]1O` [Example 1.9.5, (2R,3R,4S,5R,6R)-N-(3-bromo-5-cyanophenyl)-4-(4-(3-chloro-5-fluorophenyl)-1H-1,2,3-triazol-1-yl)-5-hydroxy-N-((1S,2S)-2-hydroxycyclopentyl)-6-(hydroxymethyl)-3-methoxytetrahydro-2H-pyran-2-carboxamide] is 22.9 nM; for `CO[C@@H]1[C@@H](n2cc(-c3cc(F)cc(Br)c3)nn2)[C@@H](O)[C@@H](CO)O[C@H]1C(=O)N(c1cc(Cl)cc(C#N)c1)[C@H]1CCC[C@@H]1O` [Example 1.10.4, (2R,3R,4S,5R,6R)-4-(4-(3-bromo-5-fluorophenyl)-1H-1,2,3-triazol-1-yl)-N-(3-chloro-5-cyanophenyl)-5-hydroxy-N-((1S,2S)-2-hydroxycyclopentyl)-6-(hydroxymethyl)-3-methoxytetrahydro-2H-pyran-2-carboxamide] it is 58.3 nM; for `CO[C@@H]1[C@@H](n2cc(-c3cc(F)cc(Br)c3)nn2)[C@@H](O)[C@@H](CO)O[C@H]1C(=O)N(c1cc(Cl)cc(C#N)c1)[C@@H]1CCC[C@H]1O` [Example 1.10.4R, (2R,3R,4S,5R,6R)-4-(4-(3-bromo-5-fluorophenyl)-1H-1,2,3-triazol-1-yl)-N-(3-chloro-5-cyanophenyl)-5-hydroxy-N-((1R,2R)-2-hydroxycyclopentyl)-6-(hydroxymethyl)-3-methoxytetrahydro-2H-pyran-2-carboxamide] it is 699 nM.
The figure for `CO[C@@H]1[C@@H](n2cc(-c3cc(F)cc(Br)c3)nn2)[C@@H](O)[C@@H](CO)O[C@H]1C(=O)N(c1cc(Br)cc(C#N)c1)[C@@H]1CCC[C@H]1O` [Example 1.10.5R, (2R,3R,4S,5R,6R)-N-(3-bromo-5-cyanophenyl)-4-(4-(3-bromo-5-fluorophenyl)-1H-1,2,3-triazol-1-yl)-5-hydroxy-N-((1R,2R)-2-hydroxycyclopentyl)-6-(hydroxymethyl)-3-methoxytetrahydro-2H-pyran-2-carboxamide] is 508 nM; for `CO[C@@H]1[C@@H](n2cc(-c3cc(F)cc(Br)c3)nn2)[C@@H](O)[C@@H](CO)O[C@H]1C(=O)N(c1cc(F)cc(C#N)c1)[C@H]1CCC[C@@H]1O` [Example 1.10.7, (2R,3R,4S,5R,6R)-4-(4-(3-bromo-5-fluorophenyl)-1H-1,2,3-triazol-1-yl)-N-(3-cyano-5-fluorophenyl)-5-hydroxy-N-((1S,2S)-2-hydroxycyclopentyl)-6-(hydroxymethyl)-3-methoxytetrahydro-2H-pyran-2-carboxamide] it is 146 nM.
The figure for `CO[C@@H]1[C@@H](n2cc(-c3cc(F)cc(Br)c3)nn2)[C@@H](O)[C@@H](CO)O[C@H]1C(=O)N(c1cc(F)cc(C#N)c1)[C@@H]1CCC[C@H]1O` [Example 1.10.7R, (2R,3R,4S,5R,6R)-4-(4-(3-bromo-5-fluorophenyl)-1H-1,2,3-triazol-1-yl)-N-(3-cyano-5-fluorophenyl)-5-hydroxy-N-((1R,2R)-2-hydroxycyclopentyl)-6-(hydroxymethyl)-3-methoxytetrahydro-2H-pyran-2-carboxamide] is 1030 nM; for `CO[C@@H]1[C@@H](n2cc(-c3cc(F)cc(Br)c3)nn2)[C@@H](O)[C@@H](CO)O[C@H]1C(=O)N(c1cc(C)cc(C#N)c1)[C@H]1CCC[C@@H]1O` [Example 1.10.8, (2R,3R,4S,5R,6R)-4-(4-(3-bromo-5-fluorophenyl)-1H-1,2,3-triazol-1-yl)-N-(3-cyano-5-methylphenyl)-5-hydroxy-N-((1S,2S)-2-hydroxycyclopentyl)-6-(hydroxymethyl)-3-methoxytetrahydro-2H-pyran-2-carboxamide] it is 157 nM; for `CO[C@@H]1[C@@H](n2cc(-c3cc(F)cc(Br)c3)nn2)[C@@H](O)[C@@H](CO)O[C@H]1C(=O)N(c1cc(C)cc(C#N)c1)[C@@H]1CCC[C@H]1O` [Example 1.10.8R, (2R,3R,4S,5R,6R)-4-(4-(3-bromo-5-fluorophenyl)-1H-1,2,3-triazol-1-yl)-N-(3-cyano-5-methylphenyl)-5-hydroxy-N-((1R,2R)-2-hydroxycyclopentyl)-6-(hydroxymethyl)-3-methoxytetrahydro-2H-pyran-2-carboxamide] it is 1120 nM.
For the compound `COc1cc(C#N)cc(N(C(=O)[C@@H]2O[C@H](CO)[C@H](O)[C@H](n3cc(-c4cc(F)cc(Br)c4)nn3)[C@H]2OC)[C@H]2CCC[C@@H]2O)c1` [Example 1.10.9, (2R,3R,4S,5R,6R)-4-(4-(3-bromo-5-fluorophenyl)-1H-1,2,3-triazol-1-yl)-N-(3-cyano-5-methoxyphenyl)-5-hydroxy-N-((1S,2S)-2-hydroxycyclopentyl)-6-(hydroxymethyl)-3-methoxytetrahydro-2H-pyran-2-carboxamide], the concentration for half-maximal inhibition (IC50) is 174 nM. Compared with the last compound, the IC50 is about 6.4-fold lower.
The compound `COc1cc(C#N)cc(N(C(=O)[C@@H]2O[C@H](CO)[C@H](O)[C@H](n3cc(-c4cc(F)cc(Br)c4)nn3)[C@H]2OC)[C@@H]2CCC[C@H]2O)c1` [Example 1.10.9R, (2R,3R,4S,5R,6R)-4-(4-(3-bromo-5-fluorophenyl)-1H-1,2,3-triazol-1-yl)-N-(3-cyano-5-methoxyphenyl)-5-hydroxy-N-((1R,2R)-2-hydroxycyclopentyl)-6-(hydroxymethyl)-3-methoxytetrahydro-2H-pyran-2-carboxamide] registered an IC50 of 1200 nM. Compared with the last compound, the IC50 is about 6.9-fold higher.
For `CO[C@@H]1[C@@H](n2cc(-c3ccc(C)c(F)c3F)nn2)[C@@H](O)[C@@H](CO)O[C@H]1C(=O)N(c1cc(Cl)cc(Cl)c1)[C@H]1CCC[C@@H]1O` [Example 1.11.2, (2R,3R,4S,5R,6R)-N-(3,5-dichlorophenyl)-4-(4-(2,3-difluoro-4-methylphenyl)-1H-1,2,3-triazol-1-yl)-5-hydroxy-N-((1S,2S)-2-hydroxycyclopentyl)-6-(hydroxymethyl)-3-methoxytetrahydro-2H-pyran-2-carboxamide], the IC50 was 15.1 nM.
The compound `CO[C@@H]1[C@@H](n2cc(-c3ccc(C)c(F)c3F)nn2)[C@@H](O)[C@@H](CO)O[C@H]1C(=O)N(c1cc(Cl)cc(C#N)c1)[C@H]1CCC[C@@H]1O` [Example 1.11.4, (2R,3R,4S,5R,6R)-N-(3-chloro-5-cyanophenyl)-4-(4-(2,3-difluoro-4-methylphenyl)-1H-1,2,3-triazol-1-yl)-5-hydroxy-N-((1S,2S)-2-hydroxycyclopentyl)-6-(hydroxymethyl)-3-methoxytetrahydro-2H-pyran-2-carboxamide] registered an IC50 of 21.9 nM. The IC50 values of the last two compounds are within 1.5-fold of each other.
For the compound `CO[C@@H]1[C@@H](n2cc(-c3ccc(C)c(F)c3F)nn2)[C@@H](O)[C@@H](CO)O[C@H]1C(=O)N(c1cc(Cl)cc(C#N)c1)[C@@H]1CCC[C@H]1O` [Example 1.11.4R, (2R,3R,4S,5R,6R)-N-(3-chloro-5-cyanophenyl)-4-(4-(2,3-difluoro-4-methylphenyl)-1H-1,2,3-triazol-1-yl)-5-hydroxy-N-((1R,2R)-2-hydroxycyclopentyl)-6-(hydroxymethyl)-3-methoxytetrahydro-2H-pyran-2-carboxamide], the IC50 was 53.9 nM.
